The source of these data is patent US20100298302A1, “NOVEL PROTEIN KINASE MODULATORS” (priority 2009, published 2010).

Assay [1] has as its system MiaPaca human pancreatic carcinoma cells. In words: Alamar Blue cell proliferation assay, MiaPaCa. The settings on record: MIA PaCa-2. The format is cell-based. On the procedure: (§1) A representative cell-proliferation assay protocol using Alamar Blue dye (stored at 4° C., use 20 ul per well) is described hereafter.
(§2) a. Split and trypsinize cells.
(§3) b. Count cells using hemocytometer.
(§4) c. Plate 4,000-5,000 cells per well in 100 μl of medium and seed into a 96-well plate according to the following plate layout. Add cell culture medium only to wells B10 to B12. Wells B1 to B9 have cells but no compound added.
(§5) d. Add 100 μl of 2× drug dilution to each well in a concentration shown in the plate layout above. At the same time, add 100 μl of media into the control wells (wells B10 to B12). Total volume is 200 μl/well.
(§6) e. Incubate four (4) days at 37° C., 5% CO2 in a humidified incubator.
(§7) f. Add 20 μl Alamar Blue reagent to each well.
(§8) g. Incubate for four (4) hours at 37° C., 5% CO2 in a humidified incubator.
(§9) h. Record fluorescence at an excitation wavelength of 544 nm and emission wavelength of 590 nm using a microplate reader.
(§10) In the assays, cells are cultured with a test compound for approximately four days, the dye is then added to the cells and fluorescence of […] dye is detected after approximately four hours. Different types of cells can be utilized in the assays (e.g., HCT-116 human colorectal carcinoma cells, PC-3 human prostatic cancer cells, MDA-MB231 human breast cancer cells, K-562 human chronic myelogenous leukemia (CML) cells, MiaPaca human pancreatic carcinoma cells, MV-4 human acute myeloid leukemia cells, and BxPC3 human pancreatic adenocarcinoma cells).
In general terms: Alamar Blue is a resazurin reagent that responds to reducing activity.

Assay [2] concerns PC-3 human prostatic cancer cells. In words: Alamar Blue cell proliferation assay, PC3. The format is cell-based. On the procedure:
as §1, §2, §3, §4, §5, §6, §7, §8, §9, §10

The target in assay [3] is recombinant PIM-1 (Homo sapiens, UniProt P11309). In words: PIM-1 kinase assay. The format is biochemical. The conditions noted are these: for inhibition at 0.5 µM: 500 nM compound, read-out: PIM1: % inh 500 nM. On the procedure:
The following procedure was used to assay the PIM-1 kinase activity of compounds of the invention. Other methods for assaying PIM-1 and other PIM kinases, as well as methods to assay for activity against various kinases known in the art.
In a final reaction volume of 50 ul, recombinant PIM-1 (1 ng) was incubated with 12 mM MOPS pH 7.0, 0.4 mM EDTA, glycerol 1%, brij 35 0.002%, 2-mercaptoethanol 0.02%, BSA 0.2 mg/ml, 100 uM KKRNRTLTK, 10 mM MgAcetate, 15 uM ATP, [γ-^33P-ATP] (specific activity approx. 500 cpm/pmol), DMSO 4% and test inhibitor compound at the required concentration. The reaction was initiated by the addition of the Magnesium ATP mixture. After 40 min incubation at 23° C., the reactions were quenched by the addition of 100 ul 0.75% Phosphoric acid, and the labeled peptide collected by filtration through a phosphocellulose filter plate. The plate was washed 4 times with 0.075% phosphoric acid (100 ul per well) and then, after the addition of scintillation fluid (20 ul per well), the counts were measured by a scintillation counter.

Assay [4] has as its system MV-4-11. In words: Alamar Blue cell proliferation assay, MV-4-11. The settings on record: Homo sapiens, MV4-11; Table 4. Format: cell-based. On the procedure:
as §1, §2, §3, §4, §5, §6, §7, §8, §9, §10

Assay [5] deals with K-562 human chronic myelogenous leukemia (CML) cells. The experiment in a line: Alamar Blue cell proliferation assay, K-562. The settings on record: K562, Table 4. The format is cell-based. The protocol:
as §1, §2, §3, §4, §5, §6, §7, §8, §9, §10

The target in assay [6] is recombinant human PIM2 (Homo sapiens, UniProt Q9P1W9). In words: PIM-2 kinase assay. Format: biochemical. On the procedure: Test compounds dissolved and diluted in DMSO (2 μl) were added to a reaction mixture comprising 10 μl of 5× Reaction Buffer (40 mM MOPS pH 7.0, 5 mM EDTA), 10 μl of recombinant human PIM2 solution (4 ng PIM-2 dissolved in dilution buffer (20 mM MOPS pH 7.0; EDTA 1 mM; 5% Glycerol; 0.01% Brij 35; […]; […] 2-mercaptoethanol; 1 mg/ml BSA)) and 8 ul of water. Reactions were initiated by the addition of 10 ul of ATP Solution ([…] (15 mM MgCl2; 75 uM ATP) 1% ([γ-33P]ATP: Stock 1 mCi/100 μl; 3000 Ci/mmol (Perkin Elmer)) and 10 ul of substrate peptide solution (RSRSSYPAGT, dissolved in water at a concentration of 1 mM), Reactions were maintained for 10 min at 30° C. The reactions were quenched with 100 ul of 0.75% Phosphoric acid, then transferred to and filtered through a Phosphocellulose filter plate (Millipore, MSPH-N6B-50). After washing each well 4 times with 0.75% Phosphoric acid, scintillation fluid (20 uL) was added to each well and the residual radioactivity was measured using a Wallac luminescence counter.

In assay [7] the target is T1, recombinant human CK2 (Homo sapiens, UniProt P68400).
T1 construct: purchased Upstate
The experiment in a line: cell-free CK2 assay. Format: biochemical. On the procedure: Modulatory activity of compounds described herein was assessed in vitro in cell-free CK2 assays by the following method.
Test compounds in aqueous solution were added at a volume of 10 microliters, to a reaction mixture comprising 10 microliters Assay Dilution Buffer (ADB; 20 mM MOPS, pH 7.2, 25 mM beta-glycerolphosphate, 5 mM EGTA, 1 mM sodium orthovanadate and 1 mM dithiothreitol), 10 microliters of substrate peptide (RRRDDDSDDD, dissolved in ADB at a concentration of 1 mM), 10 microliters of recombinant human CK2 (25 ng dissolved in ADB; Upstate). Reactions were initiated by the addition of 10 microliters of ATP Solution (90% 75 mM MgCl2, 75 micromolar ATP dissolved in ADB; 10% [γ-^33P]ATP (stock 1 mCi/100 μl; 3000 Ci/mmol (Perkin Elmer) and maintained for 10 minutes at 30 degrees C. The reactions were quenched with 100 microliters of 0.75% phosphoric acid, then transferred to and filtered through a phosphocellulose filter plate (Millipore). After washing each well 5 times with 0.75% phosphoric acid, the plate was dried under vacuum for 5 min and, following the addition of 15 ul of scintilation fluid to each well, the residual radioactivity was measured using a Wallac luminescence counter.

[8] abbreviates: 15 μM ATP, read-out: PIM1: IC50 (15 μM ATP).

Read-outs that look alike come from different tables or passages of the source.

Chain of recombinant human PIM2 (Q9P1W9 whole entry): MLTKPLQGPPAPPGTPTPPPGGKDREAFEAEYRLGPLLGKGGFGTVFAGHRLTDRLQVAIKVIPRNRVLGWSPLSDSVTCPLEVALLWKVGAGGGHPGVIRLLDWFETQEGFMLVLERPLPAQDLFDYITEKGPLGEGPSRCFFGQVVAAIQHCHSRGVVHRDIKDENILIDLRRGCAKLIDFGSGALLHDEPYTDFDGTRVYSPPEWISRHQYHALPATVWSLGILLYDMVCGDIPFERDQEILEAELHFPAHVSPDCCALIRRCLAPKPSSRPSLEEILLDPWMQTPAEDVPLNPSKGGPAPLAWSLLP
Chain of recombinant PIM-1 (P11309 whole entry): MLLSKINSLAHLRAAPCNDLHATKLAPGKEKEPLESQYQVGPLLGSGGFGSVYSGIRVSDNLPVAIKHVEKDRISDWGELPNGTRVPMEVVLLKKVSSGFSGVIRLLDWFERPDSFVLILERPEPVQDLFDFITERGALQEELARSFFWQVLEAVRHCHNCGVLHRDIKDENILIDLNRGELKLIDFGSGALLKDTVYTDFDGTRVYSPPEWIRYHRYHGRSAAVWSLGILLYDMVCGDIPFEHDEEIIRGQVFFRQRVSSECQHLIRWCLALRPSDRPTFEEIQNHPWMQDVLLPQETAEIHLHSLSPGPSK
T1 sequence (P68400 whole entry): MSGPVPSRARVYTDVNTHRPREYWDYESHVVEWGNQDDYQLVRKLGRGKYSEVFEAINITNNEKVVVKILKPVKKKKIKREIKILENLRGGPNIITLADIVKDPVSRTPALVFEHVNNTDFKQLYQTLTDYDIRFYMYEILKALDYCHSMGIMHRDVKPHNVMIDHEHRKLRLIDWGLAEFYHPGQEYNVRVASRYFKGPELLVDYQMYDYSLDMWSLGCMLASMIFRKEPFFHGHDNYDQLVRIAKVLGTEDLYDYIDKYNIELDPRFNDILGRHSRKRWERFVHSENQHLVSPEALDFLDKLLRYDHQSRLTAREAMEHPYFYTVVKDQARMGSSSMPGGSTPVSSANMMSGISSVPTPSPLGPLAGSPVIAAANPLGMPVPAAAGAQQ
T1 sequence (P67870 whole entry partner): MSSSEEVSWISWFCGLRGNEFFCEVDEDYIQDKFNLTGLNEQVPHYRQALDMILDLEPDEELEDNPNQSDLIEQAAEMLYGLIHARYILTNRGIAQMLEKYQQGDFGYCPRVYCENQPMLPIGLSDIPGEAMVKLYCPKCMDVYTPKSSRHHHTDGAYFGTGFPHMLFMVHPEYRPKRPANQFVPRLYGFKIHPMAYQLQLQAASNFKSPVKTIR

What is called IC50 is the concentration that inhibits the measured activity by half. Turning to `COc1cccc(Nc2nc3cc(C(=O)O)ccc3n3cccc23)c1`, the IC50 in assay [1] is over 10000 nM; in assay [2], over 10000 nM; in assay [3] (setting [8]), 354 nM; in assay [4], over 10000 nM; in assay [5] it was over 10000 nM. Also, in assay [3], the inhibition at 0.5 µM was found to be 79%.

Regarding `CN(C)CCNc1nc2cc(C#N)ccc2n2cccc12`, the half-maximal inhibitory concentration (IC50) in assay [1] came out at 1290 nM; in assay [2], 8310 nM; in assay [4], 2730 nM; in assay [5], 5240 nM. Further, in assay [3], the inhibition at 0.5 µM came to 20.1%.

For `Cc1ccccc1Nc1nc2cc(-c3nnn[nH]3)ccc2n2cccc12`, the IC50 in assay [1] is over 10000 nM; in assay [2] it was over 10000 nM; in assay [3] (setting [8]) it was 676 nM; in assay [4], over 10000 nM; in assay [5] it was over 10000 nM. Moreover, in assay [3], the inhibition at 0.5 µM amounted to 52.4%.

For `Fc1cccc(Nc2nc3cc(-c4nnn[nH]4)ccc3n3cccc23)c1`, the IC50 was over 10000 nM in assay [1]; over 10000 nM in assay [2]; 290 nM in assay [3] (setting [8]); over 10000 nM in assay [4]; over 10000 nM in assay [5]. For the same molecule, the inhibition at 0.5 µM in assay [3] was 70%.

In the case of `O=C(O)c1ccc2c(c1)nc(Nc1ccc3ncccc3c1)c1cccn12`, the half-inhibitory concentration (IC50) in assay [1] is over 10000 nM; in assay [3] (setting [8]), 239 nM; in assay [4], over 10000 nM; in assay [5] it was over 10000 nM. Further, in assay [3], the inhibition at 0.5 µM turned out to be 43.2%.

As to `NC(=O)c1cccc2c1nc(Nc1ccccc1Cl)c1cccn12`, the IC50 is under 100 nM in assay [3] (Table 5, read-out: PIM1 IC50); under 1000 nM in assay [6]; under 1000 nM in assay [7].

With `NC(=O)c1cccc2c1[nH]c(=O)c1cccn12`, the IC50 was over 2500 nM in assay [3] (Table 5, read-out: PIM1 IC50); over 2500 nM in assay [6]; over 5000 nM in assay [7].

In the case of `Brc1cccc(Nc2nc3c(-c4nnc[nH]4)cccc3n3cccc23)c1`, the IC50 in assay [3] (Table 5, read-out: PIM1 IC50) is under 100 nM; in assay [6], under 100 nM; in assay [7], under 100 nM.

Consider `CC(C)(C)OC(=O)OCc1cccc2c1nc(N(C(=O)OC(C)(C)C)c1ccccc1F)c1cccn12`, for which the IC50 is over 2500 nM in assay [3] (Table 5, read-out: PIM1 IC50); over 2500 nM in assay [6]; over 5000 nM in assay [7].

For the molecule `O=c1[nH]c2c(-c3nnc[nH]3)cccc2n2cccc12`, the IC50 in assay [3] (Table 5, read-out: PIM1 IC50) was over 2500 nM; in assay [6], over 2500 nM; in assay [7], under 5000 nM.

For the molecule `NC(=O)c1cc(F)cc(Nc2nc3cc(C(=O)O)ccc3n3cccc23)c1`, the concentration for half-maximal inhibition (IC50) is over 10000 nM in assay [1], 229 nM in assay [3] (setting [8]), over 10000 nM in assay [4] and over 10000 nM in assay [5]. Moreover, the inhibition at 0.5 µM in assay [3] came to 69.3%.

As to `COc1ccc(Sc2nc3c(-c4nnc[nH]4)cccc3n3cccc23)cc1`, the IC50 was under 100 nM in assay [3] (Table 5, read-out: PIM1 IC50); under 5000 nM in assay [6]; under 100 nM in assay [7].

For the molecule `CCOC(=O)c1cccc2c1[nH]c(=O)c1cccn12`, the IC50 in assay [3] (Table 5, read-out: PIM1 IC50) is over 2500 nM; in assay [6] it was over 2500 nM; in assay [7], over 5000 nM.

In the case of `OCc1cccc2c1nc(Nc1ccccc1F)c1cccn12`, the IC50 was over 2500 nM in assay [3] (Table 5, read-out: PIM1 IC50); under 5000 nM in assay [6]; over 5000 nM in assay [7].

Take `c1cc(-c2nnc[nH]2)c2nc(Nc3nccs3)c3cccn3c2c1`: the IC50 in assay [3] (Table 5, read-out: PIM1 IC50) was under 5000 nM; in assay [6] it was under 5000 nM; in assay [7], under 5000 nM.

Take `O=C(O)c1cccc2c1nc(Nc1ccccc1F)c1cccn12`: the half-inhibitory concentration (IC50) in assay [3] (Table 5, read-out: PIM1 IC50) was under 1000 nM; in assay [6], under 1000 nM; in assay [7], under 1000 nM.

On to `O=C(O)c1cccc2c1[nH]c(=O)c1cccn12`, for which the IC50 in assay [3] (Table 5, read-out: PIM1 IC50) is over 2500 nM; in assay [6] it was over 2500 nM; in assay [7] it was under 5000 nM.

For the molecule `CN(C)CCNc1nc2c(-c3nnc[nH]3)cccc2n2cccc12`, the IC50 was over 2500 nM in assay [3] (Table 5, read-out: PIM1 IC50); over 2500 nM in assay [6]; over 5000 nM in assay [7].

As for `Fc1ccc(Nc2nc3c(-c4nnc[nH]4)cccc3n3cccc23)c(Cl)c1`, the IC50 in assay [3] (Table 5, read-out: PIM1 IC50) was under 100 nM; in assay [6], under 100 nM; in assay [7] it was under 1000 nM.

For the molecule `c1cc(-c2nnc[nH]2)c2nc(NCC3CC3)c3cccn3c2c1`, the IC50 in assay [3] (Table 5, read-out: PIM1 IC50) is under 100 nM; in assay [6], under 1000 nM; in assay [7], under 5000 nM.
